{"source": "patent US12478629B2", "about": "“Use of glucocorticoids for the treatment of epithelial microbial infections of a fluid containing organ with a natural exterior orifice in mammals” (VIRBAC, priority 2018, dated 2025)", "system": "mild clinical mastitis", "experiment": "Multicenter clinical field study, intramammary treatment of mild clinical mastitis", "format": "in vivo, lactating cows and heifers", "procedure": "The purpose of this multicenter clinical field study is to evaluate the efficacy and the safety of HCA at a dosage of 20 mg in 10 ml of Vaseline oil based formulation every 12±2 h hours (minimum of one and maximum of four treatments) in the intramammary treatment of mild clinical mastitis in lactating cows; more specifically to assess the efficacy (clinical cure rate) of HCA alone in the treatment of udder inflammation (mild clinical mastitis), under field conditions and to assess the safety and the risk of aggravation or relapses during and after the treatment with HCA alone.\nAnimals (50 lactating cows and heifers presenting clinical symptoms of mastitis) have been intramammarily treated with one syringe (10 mL) containing 20 mg of HCA at each time point for a minimum of 1 and a maximum of 4 treatments in a 12±2 h interval (each morning or evening milking time, respectively). Depending on the result of the clinical examination and the clinical status classification, the animal has been treated until the animal was classified as clinically cured, failure or the maximum of 4 treatments is reached.\nBefore the tested treatment, a sample of milk of each animal has been collected to be tested for bacteriology of classical pathogenic bacteria; among the 50 animals, 34 produced a milk containing pathogenic bacteria, no pathogenic bacteria has been detected in the milk of the 16 remaining animals, it can nevertheless not be excluded that those 16 animals were infected by a non-tested pathogenic bacteria.", "data": [{"smiles": "CCC(=O)O[C@]1(C(=O)COC(C)=O)CC[C@H]2[C@@H]3CCC4=CC(=O)CC[C@]4(C)[C@H]3[C@@H](O)C[C@@]21C", "note": "[HCA, hydrocortisone 21-acetate 17α-propionate]", "values": [{"measurement": "animals cured (clinical cure rate)", "setting": "16 animals bacteriologically negative at DO", "value": 56.3, "unit": "%"}, {"measurement": "animals cured (clinical cure rate)", "setting": "34 animals bacteriologically positive at DO", "value": 20.6, "unit": "%"}, {"measurement": "animals cured (clinical cure rate)", "setting": "all 50 animals, 20 mg HCA in 10 mL intramammary every 12±2 h, after 3 or 4 administrations", "value": 32, "unit": "%"}, {"measurement": "adverse effect of the treatment / tolerance", "setting": "intramammary, 20 mg in 10 mL, 1 to 4 treatments", "value": "No adverse effect"}]}]}
